Reference: ChEMBL document CHEMBL3046057, “Synthesis and leishmanicidal activity of quinolinetriclosan and quinolineeugenol hybrids” (Med Chem Res, 2012)
In brackets after ≈: the same amount, converted by molar mass.

Legend:
Leishmania panamensis [1] = test: Leishmanicidal activity against axenic amastigote stage of Leishmania panamensis MHOM/CO/87/UA140epir GFP assessed as parasite viability after 72 hr by MTT assay; type: functional, organism-based
[2] = (§1) Cytotoxicity against Homo sapiens (human) U937 cells assessed as cell viability after 72 hr by MTT assay; type: cell-based, U-937; details: U937 cells, read-out: LC50
[3] = Selectivity index, ratio of LC50 for human U937 cells to EC50 for intracellular amastigote stage of Leishmania panamensis MHOM/CO/87/UA140epir GFP infected in human U937 cells; type: toxicity, cell-based, U-937; details: for selectivity ratio: read-out: Selectivity Index
Leishmania panamensis [4] = test: Leishmanicidal activity against intracellular amastigote stage of Leishmania panamensis MHOM/CO/87/UA140epir GFP infected in human U937 cells assessed as parasite viability after 72 hr by flow cytometric analysis; type: functional, organism-based, U-937
[5] = Selectivity index, ratio of LC50 for human U937 cells to EC50 for axenic amastigote stage of Leishmania panamensis MHOM/CO/87/UA140epir GFP; type: toxicity, cell-based, U-937; details: for selectivity ratio: U937 cells, axenic amastigotes of Leishmania panamensis, read-out: Selectivity Index
U-937 = test: as §1; type: cell-based; details: u-937, 72 h
[6] = Leishmania panamensis, MHOM/CO/87/UA140epir GFP, 72 h, read-out: EC50
[7] = Leishmania panamensis, MHOM/CO/87/UA140epir GFP, U-937, 72 h, read-out: EC50

| Molecule | EC50 (Leishmania panamensis [1]; [6]) [µg/mL] | CC50 at 72 h [2] [µg/mL] | selectivity ratio [3] | EC50 (Leishmania panamensis [4]; [7]) [µg/mL] | selectivity ratio [5] | Selectivity Index ([5]; u-937) | EC50 (Leishmania panamensis [1]) [µg/mL] | LC50 (U-937) [µg/mL] | Selectivity Index ([3]; u-937) | EC50 (Leishmania panamensis [4]; u-937) [µg/mL] |
| --- | --- | --- | --- | --- | --- | --- | --- | --- | --- | --- |
| C=CCc1ccc(OCCCCCCCCCCCCOc2cccc3ccc(C)nc23)c(OC)c1 | > 100 | 82.9 (≈ 169 µM) | 4.7 | 17.4 (≈ 35.5 µM) | – | – | – | – | – | – |
| Cc1ccc2cccc(OCCCOc3cc(Cl)ccc3Oc3ccc(Cl)cc3Cl)c2n1 | 23.6 (≈ 48.3 µM) | > 200 | > 31.2 | 6.4 (≈ 13.1 µM) | > 8.5 | – | – | – | – | – |
| Cc1ccc2cccc(OCCCCOc3cc(Cl)ccc3Oc3ccc(Cl)cc3Cl)c2n1 | 9.7 (≈ 19.3 µM) | > 200 | > 2 | > 100 | > 20.6 | – | – | – | – | – |
| Cc1ccc2cccc(OCCCCCOc3cc(Cl)ccc3Oc3ccc(Cl)cc3Cl)c2n1 | 4.1 (≈ 7.93 µM) | 59.2 (≈ 115 µM) | 24.6 | 2.4 (≈ 4.64 µM) | 14.4 | – | – | – | – | – |
| Cc1ccc2cccc(OCCCCCCCCOc3cc(Cl)ccc3Oc3ccc(Cl)cc3Cl)c2n1 | > 100 | > 200 | – | – | > 2 | – | – | – | – | – |
| Cc1ccc2cccc(OCCCCCCCCCOc3cc(Cl)ccc3Oc3ccc(Cl)cc3Cl)c2n1 | > 100 | > 200 | – | – | > 2 | – | – | – | – | – |
| Cc1ccc2cccc(OCCCCCCCCCCCCOc3cc(Cl)ccc3Oc3ccc(Cl)cc3Cl)c2n1 | > 100 | > 200 | – | – | > 2 | – | – | – | – | – |
| C=CCc1ccc(OCCCOc2cccc3ccc(C)nc23)c(OC)c1 | 6.9 (≈ 19 µM) | 6.8 (≈ 18.7 µM) | – | – | 1 | – | – | – | – | – |
| C=CCc1ccc(OCCCCOc2cccc3ccc(C)nc23)c(OC)c1 | 38.9 (≈ 103 µM) | 31.3 (≈ 82.9 µM) | < 1 | > 31.3 | 0.5 | – | – | – | – | – |
| C=CCc1ccc(OCCCCCOc2cccc3ccc(C)nc23)c(OC)c1 | 9.5 (≈ 24.3 µM) | 10.5 (≈ 26.8 µM) | – | – | 1 | – | – | – | – | – |
| C=CCc1ccc(OCCCCCCCCOc2cccc3ccc(C)nc23)c(OC)c1 | 29.6 (≈ 68.3 µM) | 14.7 (≈ 33.9 µM) | 3.8 | 3.9 (≈ 8.99 µM) | 0.5 | – | – | – | – | – |
| C=CCc1ccc(OCCCCCCCCCOc2cccc3ccc(C)nc23)c(OC)c1 | 21.1 (≈ 47.1 µM) | 14.1 (≈ 31.5 µM) | – | – | 0.7 | – | – | – | – | – |
| Cc1ccc2cccc(O)c2n1 [8-HYDROXY QUINALDINE] | 2.6 (≈ 16.3 µM) | 7.6 (≈ 47.7 µM) | – | – | 2.9 | – | – | – | – | – |
| C[C@@H]1[C@H](O)[C@@H](C)/C=C/C=C/C=C/C=C/C=C/C=C/C=C/[C@H](O[C@@H]2O[C@H](C)[C@@H](O)[C@H](N)[C@@H]2O)C[C@@H]2O[C@](O)(C[C@@H](O)C[C@@H](O)[C@H](O)CC[C@@H](O)C[C@@H](O)CC(=O)O[C@H]1C)C[C@H](O)[C@H]2C(=O)O [AMPHOTERICIN B] | 0.05 (≈ 0.0541 µM) | 38.8 (≈ 42 µM) | 970 | 0.04 (≈ 0.0433 µM) | 776 | – | – | – | – | – |
| C=CCc1ccc(O)c(OC)c1 [EUGENOL] | 21.4 (≈ 130 µM) | 14.2 (≈ 86.5 µM) | – | – | 0.7 | – | – | – | – | – |
| Oc1cc(Cl)ccc1Oc1ccc(Cl)cc1Cl [TRICLOSAN] | 11.3 (≈ 39 µM) | 4.8 (≈ 16.6 µM) | – | – | 0.4 | – | – | – | – | – |
| MEGLUMINE ANTIMONATE | – | – | – | – | – | > 1 | > 1000 | > 1000 | > 147.05 | 6.8 |
